Measured values as given in patent US20110014296A1, “Drug Delivery Nanodevice, its Preparation Method and Uses Thereof” (NATIONAL CHIAO TUNG UNIVERSITY, priority 2009, published 2011).

Tested on: spontaneous SWDs of Long-Evans rats
Assay: In vivo anti-epileptic therapy, spontaneous spike-wave discharges (SWDs)
Parameters: species or system rat
Conditions: before and after application, ESM 28 mg/Kg i.p., ESM-SAIO and ESM-device 40 mg/Kg (FIG. 12)
Procedure: Adult male Long-Evans and Wistar rats were used in this study. All rats were kept in a sound-attenuated room under a 12:12 hr light-dark cycle (07:00-19:00 lights on) with food and water provided ad libitum. The experimental procedures were reviewed and approved by the Institutional Animal Care and Use Committee. Briefly, the recording electrodes were implanted under pentobarbital anesthesia (60 mg/kg, i.p.). Subsequently, the rat was placed in a standard stereotaxic apparatus. In total, six stainless steel screws were driven bilaterally into the skull overlying the frontal (A +2.0, L 2.0 with reference to the bregma) and occipital (A −6.0, L 2.0) regions of the cortex to record cortical field potentials. A ground electrode was implanted 2 mm caudal to lambda. Dental cement was applied to fasten the connection socket to the surface of the skull. Following suturing to complete the surgery, animals were given an antibiotic (chlortetracycline) and housed individually in cages for recovery. […] To confirm the cortical focus theory of SWDs, a pharmacological epileptic rat model, low-dose pentylenetetrazol (PTZ) (20 mg/kg, i.p.) in Wistar rats, was also used. […] In this experiment, 1-hour spontaneous brain activity before the treatment (baseline) and another 1-hour spontaneous brain activity 30 minutes after the treatment were recorded, respectively. […]

CCC1(C)CC(=O)NC1=O (centres unmarked) [ESM, ethosuximide]
SWD number: significantly reduced
total SWD duration: significantly reduced
